From ChEMBL document CHEMBL1201862, “PubChem BioAssay data set” (2004)
Values joined by “and” are separate entries in the source; they are usually repeats but may differ in a detail not shown here. Equal values may be shown once.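 How tested: cells in 96-well plates exposed to compound for 48 hours at five concentrations. Here, GI50 denotes the concentration required for 50% inhibition of growth.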 Active and inactive are the calls of the source. Rule as the data show it: active = GI50 up to about 1.1 µM and inactive = higher.

Legend:
Assay in all cases: NCI-60 cell line screen, 48 h
A498 = test system: A498
ACHN = test system: ACHN
EKVX = test system: EKVX
HCT-116 = test system: HCT-116
HL-60 = test system: HL-60
LOX IMVI = test system: LOX IMVI
MDA-MB-231 = test system: MDA-MB-231
Malme-3M = test system: Malme-3M
NCI-H226 = test system: NCI-H226
NCI-H460 = test system: NCI-H460
OVCAR-4 = test system: OVCAR-4
OVCAR-5 = test system: OVCAR-5
PC-3 = test system: PC-3
RPMI-8226 = test system: RPMI-8226
SK-MEL-2 = test system: SK-MEL-2
SK-OV-3 = test system: SK-OV-3
SN12C = test system: SN12C
SNB-19 = test system: SNB-19
SW-620 = test system: SW-620
UO-31 = test system: UO-31

| SMILES | GI50 (A498) | GI50 (ACHN) | GI50 (EKVX) | GI50 (HCT-116) | GI50 (HL-60) | GI50 (LOX IMVI) | GI50 (MDA-MB-231) | GI50 (Malme-3M) | GI50 (NCI-H226) | GI50 (NCI-H460) | GI50 (OVCAR-4) | GI50 (OVCAR-5) | GI50 (PC-3) | GI50 (RPMI-8226) | GI50 (SK-MEL-2) | GI50 (SK-OV-3) | GI50 (SN12C) | GI50 (SNB-19) | GI50 (SW-620) | GI50 (UO-31) |
| --- | --- | --- | --- | --- | --- | --- | --- | --- | --- | --- | --- | --- | --- | --- | --- | --- | --- | --- | --- | --- |
| O=C1N/C(=N/N=C\C(O)C(O)C(O)C(O)CO)N/C1=C/c1ccc(Cl)cc1 (stereo not given) | > 100 µM (inactive) | > 100 µM (inactive) | > 100 µM (inactive) and 84.5 µM (inactive) | > 100 µM (inactive) | 14.4 µM (inactive) and 23.8 µM (inactive) | > 100 µM (inactive) | > 100 µM (inactive) | 97.3 µM (inactive) | 74.8 µM (inactive) | > 100 µM (inactive) | 37.2 µM (inactive) and 17.7 µM (inactive) | > 100 µM (inactive) | > 100 µM (inactive) | > 100 µM (inactive) | > 100 µM (inactive) | > 100 µM (inactive) | > 100 µM (inactive) | > 100 µM (inactive) | > 100 µM (inactive) | > 100 µM (inactive) |
| C[C@]12CCC(=O)C=C1C[C@@H](O)[C@@H]1[C@@H]2CC[C@@]2(C)[C@H]1CC[C@]2(C)O | > 100 µM (inactive) | > 100 µM (inactive) | > 100 µM (inactive) | > 100 µM (inactive) | > 100 µM (inactive) | > 100 µM (inactive) | > 100 µM (inactive) | > 100 µM (inactive) | > 100 µM (inactive) | > 100 µM (inactive) | > 100 µM (inactive) | > 100 µM (inactive) | > 100 µM (inactive) | > 100 µM (inactive) | > 100 µM (inactive) | > 100 µM (inactive) | > 100 µM (inactive) | > 100 µM (inactive) | > 100 µM (inactive) | > 100 µM (inactive) |
| COc1ccc([C@]23CCN4COC[C@@H]([C@H]42)C2(CC3)OCC(C)(C)CO2)cc1OC | > 100 µM (inactive) | > 100 µM (inactive) | > 100 µM (inactive) | > 100 µM (inactive) | > 100 µM (inactive) | > 100 µM (inactive) | > 100 µM (inactive) | > 100 µM (inactive) | > 100 µM (inactive) | > 100 µM (inactive) | > 100 µM (inactive) | > 100 µM (inactive) | > 100 µM (inactive) | > 100 µM (inactive) | > 100 µM (inactive) | > 100 µM (inactive) | > 100 µM (inactive) | > 100 µM (inactive) | > 100 µM (inactive) | > 100 µM (inactive) |
| O=[N+]([O-])CC(SCc1ccccc1)c1ccc2c(c1)OCO2 (stereo not given) | 6.98 µM (inactive) | 13.1 µM (inactive) | 20.2 µM (inactive) | 1.69 µM (inactive) | 1.58 µM (inactive) | 1.56 µM (inactive) | 10.3 µM (inactive) | 14.9 µM (inactive) | 7.91 µM (inactive) | 14.8 µM (inactive) | 13.2 µM (inactive) | 15.2 µM (inactive) | 16.8 µM (inactive) | 1.57 µM (inactive) | 21.1 µM (inactive) | 15.1 µM (inactive) | 11.7 µM (inactive) | 14 µM (inactive) | 3.81 µM (inactive) | 8.26 µM (inactive) |
| CC12c3c4ccc(C=O)c3Oc3ccc(C=O)c(c31)Oc1ccc(C=O)c(c12)O4 | > 25 µM (inactive) | > 25 µM (inactive) | > 25 µM (inactive) | > 25 µM (inactive) | > 25 µM (inactive) | > 25 µM (inactive) | > 25 µM (inactive) | > 25 µM (inactive) | > 25 µM (inactive) | > 25 µM (inactive) | > 25 µM (inactive) | > 25 µM (inactive) | > 25 µM (inactive) | > 25 µM (inactive) | > 25 µM (inactive) | > 25 µM (inactive) | > 25 µM (inactive) | > 25 µM (inactive) | > 25 µM (inactive) | > 25 µM (inactive) |
| CN1C2CCC1CC(CCOC(c1ccc(F)cc1)c1ccc(F)cc1)C2 (stereo not given) | 17.8 µM (inactive) | 17.1 µM (inactive) | 13.9 µM (inactive) | 12.7 µM (inactive) | 16.1 µM (inactive) | 16.6 µM (inactive) | 16.2 µM (inactive) | 15.1 µM (inactive) | 15.3 µM (inactive) | 17.5 µM (inactive) | 17.4 µM (inactive) | 15.9 µM (inactive) | 15.5 µM (inactive) | 18.6 µM (inactive) | 16.9 µM (inactive) | 16.6 µM (inactive) | 18.4 µM (inactive) | 20.7 µM (inactive) | 19.4 µM (inactive) | 14.6 µM (inactive) |
| CN/N=C(/CCN1CCCC1)CC(c1ccccc1)c1c(O)c2ccccc2oc1=O (stereo not given) | > 100 µM (inactive) | > 100 µM (inactive) | > 100 µM (inactive) | > 100 µM (inactive) | 61.5 µM (inactive) | > 100 µM (inactive) | > 100 µM (inactive) | 39.4 µM (inactive) | > 65.6 µM (inactive) | > 100 µM (inactive) | > 100 µM (inactive) | > 100 µM (inactive) | > 100 µM (inactive) | 25.5 µM (inactive) | > 100 µM (inactive) | > 100 µM (inactive) | > 100 µM (inactive) | > 100 µM (inactive) | > 100 µM (inactive) | > 67.1 µM (inactive) |
| CCn1c(SCC(=O)NNC(=S)Nc2ccc([N+](=O)[O-])cc2)nc2ccccc2c1=O | 48.2 µM (inactive) | > 100 µM (inactive) | > 100 µM (inactive) | 35.3 µM (inactive) | 40.7 µM (inactive) | 54.3 µM (inactive) | > 100 µM (inactive) | 73.5 µM (inactive) | 90.4 µM (inactive) | 48.8 µM (inactive) | 48.5 µM (inactive) | > 100 µM (inactive) | 41.4 µM (inactive) | 29.9 µM (inactive) | > 100 µM (inactive) | > 100 µM (inactive) | 50.9 µM (inactive) | 81.7 µM (inactive) | 86.5 µM (inactive) | 39.5 µM (inactive) |
| CN1CN(c2ccccc2)C2(CCN(CCCC3(c4cccs4)OCCO3)CC2)C1=O | > 100 µM (inactive) | > 100 µM (inactive) | > 100 µM (inactive) | > 100 µM (inactive) | > 100 µM (inactive) | > 100 µM (inactive) | > 100 µM (inactive) | > 100 µM (inactive) | > 100 µM (inactive) | > 100 µM (inactive) | > 100 µM (inactive) | > 100 µM (inactive) | > 100 µM (inactive) | > 100 µM (inactive) | > 100 µM (inactive) | > 100 µM (inactive) | > 100 µM (inactive) | > 100 µM (inactive) | > 100 µM (inactive) | > 100 µM (inactive) |
| Cc1ccc(NC(=O)/C(Cc2cc(=O)oc3cc(O)ccc23)=N\NC(=O)C[N+](C)(C)C)cc1C | > 100 µM (inactive) | > 100 µM (inactive) | > 100 µM (inactive) | > 100 µM (inactive) | > 100 µM (inactive) | > 100 µM (inactive) | > 100 µM (inactive) | > 100 µM (inactive) | > 100 µM (inactive) | > 100 µM (inactive) | > 100 µM (inactive) | > 100 µM (inactive) | > 100 µM (inactive) | > 100 µM (inactive) | > 100 µM (inactive) | > 100 µM (inactive) | > 100 µM (inactive) | > 100 µM (inactive) | > 100 µM (inactive) | > 100 µM (inactive) |
| COc1cc(C2c3cc4c(cc3OC(NNS(=O)(=O)c3ccc(C)cc3)C2C)OCO4)cc(OC)c1OC (stereo not given) | 1.26 µM (inactive) | 3 µM (inactive) | 2.05 µM (inactive) | 1.29 µM (inactive) | 0.5 µM (active) | 1.87 µM (inactive) | 4.24 µM (inactive) | 3.04 µM (inactive) | 3.14 µM (inactive) | 2.13 µM (inactive) | 7.59 µM (inactive) | 9.14 µM (inactive) | 1.28 µM (inactive) | 2.08 µM (inactive) | 0.984 µM (active) | 4.13 µM (inactive) | 4.21 µM (inactive) | 3.58 µM (inactive) | 1.01 µM (active) | 5.14 µM (inactive) |
| C=CCCCCNC(=O)C[C@@H]1C2=C(CC[C@H]1O[Si](C)(C)C(C)(C)C)N1C(=O)CCC/C=C\C1C2 (stereo not given in full) | 15.2 µM (inactive) | 15.4 µM (inactive) | 17.3 µM (inactive) | 13.3 µM (inactive) | 1.84 µM (inactive) | 17 µM (inactive) | 13.3 µM (inactive) | 14.7 µM (inactive) | 15.5 µM (inactive) | 14.3 µM (inactive) | 12.2 µM (inactive) | 16 µM (inactive) | 12 µM (inactive) | 5.71 µM (inactive) | 13.2 µM (inactive) | 16.6 µM (inactive) | 15.4 µM (inactive) | 14.4 µM (inactive) | 13.6 µM (inactive) | 14.2 µM (inactive) |
| CNC(=O)OCC1=C(COC(=O)NC)C(C)N(c2ccc(OC)cc2)C1 (stereo not given) | 0.351 µM (active) | 62.2 µM (inactive) | > 100 µM (inactive) | > 100 µM (inactive) | 23.8 µM (inactive) | > 100 µM (inactive) | > 100 µM (inactive) | > 100 µM (inactive) | 1.18 µM (inactive) | 23 µM (inactive) | 54.6 µM (inactive) | 24.1 µM (inactive) | 71.6 µM (inactive) | 58.6 µM (inactive) | > 100 µM (inactive) | > 100 µM (inactive) | > 100 µM (inactive) | > 100 µM (inactive) | > 100 µM (inactive) | 41.6 µM (inactive) |
